# Read-outs that look alike come from different tables or passages of the source.
# How the values were obtained:
# [1] = system: MDA-MB-231 (ER−) breast cancer cells; experiment: Cell proliferation assay (MTS) on MDA-MB-231 (ER−) breast cancer cells; type: cell-based; details: Table 3, 3 days incubation
# Experimental: (§1) All of the following cell lines were maintained under a CO2 humidified atmosphere at 37° C. The culture media were changed every 3-4 days and the cells were split once a week.
# (§2) For the assay, the culture medium was the same.
# (§3) The cell proliferation assay was performed using 3-(4,5-dimethylthiazol-2-yl)-5-(3-carboxymethoxyphenyl)2-(4-sulfophenyl)-2H-tetrazolium (MTS) (Cell Titer 96 Aqueous, Promega, USA). MTS is converted into water-soluble colored formazan by dehydrogenase enzymes present in metabolically active cells, which allows the measurement of the number of viable cells.
# (§4) The cells were incubated at 37° C. and 5% CO2. The steroid derivatives of the present disclosure were dissolved in ethanol to prepare the 1×10^−2 M stock solutions. The stock solutions and doxorubicin (DOX) (Novapharm, Toronto, Canada) were diluted at multiple concentrations with culture media, added to each well, as indicated, and incubated for 3 days. Following each treatment, 20 μl MTS was added to each well and the mix was incubated for 4 h.
# [2] = system: OVCAR-3 ovarian cancer cells; experiment: Cell proliferation assay (MTS) on OVCAR-3 ovarian cancer cells; type: cell-based
# Source text: For the assay, the culture medium was the same, but without estradiol.
# [3] = system: WI-38 diploid fibroblasts; experiment: Cell proliferation assay (MTS) on WI-38 normal fibroblasts; type: cell-based, human; details: Table 3, normal cells, 3 days incubation
# Experimental: WI-38 diploid fibroblasts derived from embryonic human lung were cultured in MEM (devoid of the pH indicator phenol red) supplemented with 10% (v/v) FBS, L-glutamine (2 nM), penicillin (100 IU/ml), streptomycin sulphate (50 μg/ml), sodium pyruvate (1 mM) and non-essential amino acids (0.1 mM).
# as §3, §4
# [4] = system: LNCaP prostate cancer cells; experiment: Cell proliferation assay (MTS) on LNCaP prostate cancer cells; type: cell-based; details: Table 3, 3 days incubation
# Experimental: as §3, §4
# [5] = system: PC-3 (AR−) prostate cancer cells; experiment: Cell proliferation assay (MTS) on PC-3 (AR−) prostate cancer cells; type: cell-based; details: Table 3, 3 days incubation
# Experimental: as §1, §2, §3, §4
# [6] = system: HL-60 acute promyelocytic leukemia cells; experiment: Cell proliferation assay (MTS) on HL-60 leukemia cells; type: cell-based, human;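 further: cells exposed to serially diluted compound for 3 days at 37 °C, then viable cell number read via MTS conversion to coloured formazan by metabolically active cells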
# [7] = system: MCF-7 breast cancer cells; experiment: Cell proliferation assay (MTS) on MCF-7 breast cancer cells; type: cell-based, human; details: Table 3, 3 days incubation
# Experimental: MCF-7 breast cancer cells were maintained in Dulbecco's Modified Eagle's Medium (DMEM) containing a nutriment mixture F-12 ham (DME-F12) (Sigma, Saint Louis, USA) supplemented with 5% (v/v) fetal bovine serum (FBS), L-glutamine ([…]), penicillin (100 IU/ml), streptomycin sulphate (50 μg/ml) and estradiol (1 nM). For the assay, DME-F12 was supplemented with 5% (v/v) charcoal-strippes FBS, insulin (50 ng/ml) and the same concentrations of antibiotics as above.
# in vivo = details: male, Sprague-Dawley, rat, sc, 2.3 mg/kg
# Experimental: (§5) Animals: Six to seven week-old male Sprague-Dawley rats (Crl:CD®(SD)Br VAF/Plus™) weighing approximately 220 g were obtained from Charles-River, Inc (St-Constant, Qc., Canada). The animals were acclimatized to environmental conditions (temperature: 22±3° C.; humidity: 50±20%; 12-h light/12-h dark cycles, lights on at 07:15 h) for at least 5 days before starting the experiment. The animals were housed three per cage and were allowed free access to water and a certified commercial rodent food (Rodent Diet #T.2018.15, Harlan Teklad, Madison, Wis., U.S.A.) and were randomized according to their body weight.
# (§6) Assay: A pharmacokinetic study was carried out following one subcutaneous (s.c.) injection of the aminosteroids at one concentration (2.3 mg/kg of body weight in 0.5 mL of vehicle fluid). The compound was first dissolved in Ethanol (EtOH) followed by the addition of propylene glycol such that a final concentration of EtOH of 8% was obtained. During this experiment, the rats were housed individually and were fasted for 8h before injection of the aminosteroid. Blood samples for determination of aminosteroid plasma concentration were collected at the jugular vein (0.4 mL by animal) at target intervals of 3, 7, 12 and 24 h (or 3 and 12 h) post-dose from six rats per time point (Tables 5, 6 and 7). After the collect at 7 h, a replacement fluid (0.9% sodium chloride injection USP) was injected in the rat. Blood samples were collected in Microvette potassium-EDTA (ethylenediamine tetra-acetic acid)-coated tubes (Sarstedt, Aktiengesellchaft & Co, Germany) and centrifuged at 3200 rpm for 10 minutes at 4° C. The plasma was collected and stored at −80° C. until analyzed by liquid chromatography/mass spectrometry/mass spectrometry (LC/MS/MS) analysis.
# (§7) Aminosteroid measurement: The concentration of the aminosteroid was determined by LC/MS/MS analysis using a procedure developed at the CHUQ (CHUL)—Research Center (Québec, Qc, Canada). Briefly, for extraction from serum, 100 νL, of the serum sample was transferred to individual tubes and 600 μL of ammonium acetate (1 mM) was added. A methanolic solution (50 μL) containing a steroidal internal standard was then added to each tube. Samples were transferred on Strata-X SPE columns (Phenomenex, Torrance, Calif., USA), which have been conditioned with 2 mL of MeOH and 2 mL of water. Each column was washed with 2 mL of MeOH:water (10:90, v/v). The aminosteroid was then eluted with 5 mL of MeOH containing 5 mM ammonium acetate. The MeOH was evaporated at 45° C. under inert atmosphere and the dried residue dissolved in 100 μL of MeOH:water (85:15, v/v). […] The inhibitor was detected using an API 3000 mass spectrometer, equipped with TurbolonSpray (Applied Biosystems, Canada). ESI in positive ion mode was used.
# [8] = system: normal lymphocytes from peripheral blood; experiment: Cell proliferation assay (MTS) on normal lymphocytes; details: read-out: IC50 Lymph Norm.
# [9] = system: Shionogi mammary carcinoma cells (AR+); experiment: Cell proliferation assay (MTS) on Shionogi mammary carcinoma cells; type: cell-based; details: Table 3, 3 days incubation
# Experimental: Shionogi mammary carcinoma cells bearing androgen-sensitive (AR+) were routinely grown in Eagle's Minimal Essential Medium (MEM) (Sigma, Saint Louis, USA) supplemented with 5% (v/v) fetal bovine serum (FBS), penicillin (100 IU/ml), streptomycin sulphate (50 μg/ml), 1% (v/v) non-essential amino acids and dihydrotestosterone DHT (10^−8 M). For the assay, MEM devoid of the pH indicator phenol red was supplemented with 2% (v/v) charcoal-strippes FBS and the same concentrations of antibiotics and non-essential amino acids as above.
# K-562 leukemia cells = experiment: Cell proliferation assay (MTS) on K-562 leukemia cells; type: cell-based; details: Table 3, 3 days incubation
# Experimental: as §1, §2, §3, §4
# [10] = Plasmatic concentration (AUC) of aminosteroids after a single subcutaneous injection in rat; details: 2.3 mg/kg; for AUC (7 h) / AUC (24 h) / AUC(12 h): Table 5, subcutaneous one time; for AUC (0-3 h) / AUC (0-12 h): Table 6, subcutaneous one time
# Experimental: as §5, §6, §7
# [11] = Homo sapiens, OVCAR-3, 72 h, Table 3, 3 days incubation, MTS
# [12] = Homo sapiens, HL-60, 72 h, Table 3, 3 days incubation, MTS, read-out: IC50 HL-60
# [13] = Homo sapiens, Table 4, HL-60 cancer cell line, read-out: IC50
# [14] = Homo sapiens, Table 6, HL-60 cancer cell line, read-out: IC50 (HL-60)
# [15] = Table 3, 3 days incubation, MTS
# [16] = Table 3, 3 days incubation, MTS, read-out: IC50 HL-60
# [17] = Table 3, normal lymphocytes, 3 days incubation, MTS
# [18] = Table 4, HL-60 cancer cell line, read-out: IC50
# [19] = Table 6, HL-60 cancer cell line, read-out: IC50 (HL-60)
structure (smiles),measurement,setting,value
"CC(=O)c1cccc(C(=O)N[C@@H](Cc2ccccc2)C(=O)N2CCN([C@H]3C[C@@]4(C)[C@@H](CC[C@@H]5[C@@H]4CC[C@]4(C)[C@@H](O)CC[C@@H]54)C[C@@H]3O)CC2)c1 [FC-48, 3-acetyl-N-[(2S)-1-{4-[(2β,3α,5α,17β)-3,17-Dihydroxyandrostan-2-yl]piperazin-1-yl}1-oxo-3-phenylpropan-2-yl]benzamide]",IC50,"[1]; Homo sapiens, MDA-MB-231, 72 h",> 10 µM
same,IC50,[2]; [11],1.6 µM
same,IC50,"[3]; Homo sapiens, WI-38, 72 h",> 10 µM
same,IC50,"[4]; Homo sapiens, LNCaP, 72 h",2.2 µM
same,IC50,"[5]; PC3/AR, 72 h",> 10 µM
same,IC50,[6]; [12],1.8 µM
same,IC50,"[7]; Homo sapiens, MCF7, 72 h",1.5 µM
same,AUC(0-t),in vivo; AUC (7 h),290 ng·h/mL
same,AUC(0-t),in vivo; AUC (24 h),555 ng·h/mL
same,AUC(0-t),in vivo; AUC(12 h),413 ng·h/mL
same,IC50,"[8]; Lymphocyte, 72 h",> 50 µM
same,IC50,[9]; 72 h,1.3 µM
same,IC50,"K-562 leukemia cells; Homo sapiens, K562, 72 h",> 10 µM
"C[C@]12CC[C@H]3[C@@H](CCC4C[C@H](O)[C@@H](N5CCN(C(=O)[C@@H]6CCCN6C(=O)c6cc7ccccc7cn6)CC5)C[C@@]43C)[C@@H]1CC[C@@H]2O (stereo partly drawn) [31 (AH-38), {4-[(2β,3α,17β)-3,17-dihydroxyandrostan-2-yl]piperazin-1-yl}[(2S)-1-(isoquinolin-3-ylcarbonyl)pyrrolidin-2-yl]methanone]",IC50,[6]; [13],1.6 µM
same,IC50,[6]; [14],1.6 µM
same,AUC(0-t),in vivo; AUC (0-3 h),244 ng·h/mL
same,AUC(0-t),in vivo; AUC (0-12 h),991 ng·h/mL
"C[C@]12CC[C@H]3[C@@H](CCC4C[C@H](O)[C@@H](N5CCN(C(=O)[C@@H]6CCCN6C(=O)c6ccc7ccccc7n6)CC5)C[C@@]43C)[C@@H]1CC[C@@H]2O (stereo partly drawn) [33 (AH-62), {4-[(2β,3α,17β)-3,17-dihydroxyandrostan-2-yl]piperazin-1-yl}[(2S)-1-(quinolin-2-ylcarbonyl)pyrrolidin-2-yl]methanone]",IC50,[6]; [13],1.4 µM
same,IC50,[6]; [14],1.4 µM
same,AUC(0-t),in vivo; AUC (0-3 h),185 ng·h/mL
same,AUC(0-t),in vivo; AUC (0-12 h),752 ng·h/mL
CC[C@]1(O)CC[C@H]2[C@@H]3CC[C@H]4C[C@H](O)[C@@H](N5CCN(C(=O)[C@@H]6CCCN6C(=O)c6cccc7ccccc67)CC5)C[C@]4(C)[C@H]3CC[C@@]21C [LPC-37],AUC (7 h),[10],372 ng·h/mL
same,AUC (24 h),[10],681 ng·h/mL
same,AUC(12 h),[10],525 ng·h/mL
"CO[C@H]1CC[C@H]2[C@@H]3CCC4C[C@H](O)[C@@H](N5CCN(C(=O)[C@@H]6CCCN6C(=O)c6ccc7ccccc7c6)CC5)C[C@]4(C)[C@H]3CC[C@]12C (stereo partly drawn) [37 (AH-55), {4-[(2β,3α,17β)-3-hydroxy-17-methoxyandrostan-2-yl]piperazin-1-yl}[(2S)-1-(naphthalen-2-ylcarbonyl)pyrrolidin-2-yl]methanone]",IC50,[6]; [13],4.5 µM
same,IC50,[6]; [14],4.5 µM
same,AUC(0-t),in vivo; AUC (0-3 h),50 ng·h/mL
same,AUC(0-t),in vivo; AUC (0-12 h),234 ng·h/mL
"COc1cccc2c1C(=O)c1c(O)c3c(c(O)c1C2=O)C[C@@](O)(C(=O)CO)C[C@@H]3O[C@H]1C[C@H](N)[C@H](O)[C@H](C)O1 [Doxorubicin, reference compound]",IC50,"[1]; Homo sapiens, MDA-MB-231, 72 h",0.9 µM
same,IC50,"[2]; Homo sapiens, OVCAR-3",0.9 µM
same,IC50,[2]; [11],0.9 µM
same,IC50,"[3]; Homo sapiens, WI-38, 72 h",3 µM
same,IC50,"[4]; Homo sapiens, LNCaP, 72 h",0.1 µM
same,IC50,"[5]; PC3/AR, 72 h",0.9 µM
same,IC50,[6]; [12],0.08 µM
same,IC50,"[7]; Homo sapiens, MCF7, 72 h",> 10 µM
same,IC50,"[8]; Lymphocyte, 72 h",0.16 µM
same,IC50,[9]; 72 h,1.3 µM
same,IC50,"K-562 leukemia cells; Homo sapiens, K562, 72 h",0.4 µM
"C[C@]12CC[C@H]3[C@@H](CCC4C[C@H](OS(N)(=O)=O)[C@@H](N5CCN(C(=O)[C@@H]6CCCN6C(=O)c6ccc7ccccc7c6)CC5)C[C@@]43C)[C@@H]1CC[C@@H]2OS(N)(=O)=O (stereo partly drawn) [39 (AH-70), (2β,3α,17β)-2-{4-[1-(naphthalen-2-ylcarbonyl)-L-prolyl]piperazin-1-yl}androstane-3,17-diyl disulfamate]",IC50,[6]; [13],5 µM
same,IC50,[6]; [14],5 µM
same,AUC(0-t),in vivo; AUC (0-3 h),11 ng·h/mL
same,AUC(0-t),in vivo; AUC (0-12 h),67 ng·h/mL
"C[C@]12CC[C@H]3[C@@H](CCC4C[C@H](O)[C@@H](N5CCN(C(=O)[C@@H]6CCCN6C(=O)c6ccc7ncccc7c6)CC5)C[C@@]43C)[C@@H]1CC[C@@H]2O (stereo partly drawn) [32 (AH-47), {4-[(2β,3α,17β)-3,17-dihydroxyandrostan-2-yl]piperazin-1-yl}[(2S)-1-(quinolin-6-ylcarbonyl)pyrrolidin-2-yl]methanone]",IC50,[6]; [13],4.7 µM
same,IC50,[6]; [14],4.7 µM
same,AUC(0-t),in vivo; AUC (0-3 h),292 ng·h/mL
same,AUC(0-t),in vivo; AUC (0-12 h),1170 ng·h/mL
C=C(C)[C@H]1CC=C(C(=O)N2CCC[C@H]2C(=O)N2CCN([C@H]3C[C@@]4(C)[C@@H](CC[C@@H]5[C@@H]4CC[C@]4(C)[C@@H](O)CC[C@@H]54)C[C@@H]3O)CC2)CC1 [PC-46],IC50,[1],> 10 µM
same,IC50,[2]; [15],1.3 µM
same,IC50,[3],> 10 µM
same,IC50,[4],0.9 µM
same,IC50,[5],4 µM
same,IC50,[6]; [16],1.9 µM
same,IC50,[7],0.7 µM
same,IC50,[8]; [17],9.3 µM
same,IC50,[9],0.2 µM
same,IC50,K-562 leukemia cells,14.1 µM
same,AUC (7 h),[10],771 ng·h/mL
same,AUC (24 h),[10],830 ng·h/mL
same,AUC(12 h),[10],830 ng·h/mL
C[C@]12C[C@H](N3CCN(C(=O)[C@@H]4CCCN4C(=O)/C=C/c4ccccc4)CC3)[C@@H](O)C[C@@H]1CC[C@@H]1[C@@H]2CC[C@]2(C)[C@@H](O)CC[C@@H]12 [PC-42],IC50,[1],> 10 µM
same,IC50,[2]; [15],0.8 µM
same,IC50,[3],> 10 µM
same,IC50,[4],0.5 µM
same,IC50,[5],4 µM
same,IC50,[6]; [16],1.5 µM
same,IC50,[7],0.4 µM
same,IC50,[8]; [17],7.9 µM
same,IC50,[9],0.2 µM
same,IC50,K-562 leukemia cells,9.3 µM
same,AUC (7 h),[10],641 ng·h/mL
same,AUC (24 h),[10],767 ng·h/mL
same,AUC(12 h),[10],751 ng·h/mL
"C[C@]12C[C@H](N3CCN(C(=O)[C@@H]4CCCN4C(=O)c4ccc(C#N)cc4)CC3)[C@@H](O)C[C@@H]1CC[C@@H]1[C@@H]2CC[C@]2(C)[C@@H](O)CC[C@@H]12 [PC-41, 4-{[(2S)-2-({4-[(2β,3α,5α,17β)-3,17-dihydroxyandrostan-2-yl]piperazin-1-yl}carbonyl)pyrrolidin-1-yl]carbonyl}benzonitrile]",IC50,"[1]; Homo sapiens, MDA-MB-231, 72 h",> 10 µM
same,IC50,[2]; [11],0.8 µM
same,IC50,"[3]; Homo sapiens, WI-38, 72 h",> 10 µM
same,IC50,"[4]; Homo sapiens, LNCaP, 72 h",1 µM
same,IC50,"[5]; PC3/AR, 72 h",6.5 µM
same,IC50,[6]; [12],3.1 µM
same,IC50,"[7]; Homo sapiens, MCF7, 72 h",0.4 µM
same,IC50,"[8]; Lymphocyte, 72 h",19.3 µM
same,IC50,[9]; 72 h,0.2 µM
same,IC50,"K-562 leukemia cells; Homo sapiens, K562, 72 h",> 10 µM
"C#C[C@]1(O)CC[C@H]2[C@@H]3CC[C@H]4C[C@H](O)[C@@H](N5CCN(C(=O)[C@@H]6CCCN6C(=O)c6ccc7ccccc7c6)CC5)C[C@]4(C)[C@H]3CC[C@@]21C [26 (AH-71), {4-[(2β,3α,5α,17α)-3,17-dihydroxypregn-20-yn-2-yl]piperazin-1-yl}[(2S)-1-(naphthalen-2-ylcarbonyl)pyrrolidin-2-yl]methanone]",IC50,[6]; [18],1.9 µM
same,IC50,[6]; [19],1.9 µM
same,AUC (0-3 h),[10],278 ng·h/mL
same,AUC (0-12 h),[10],1338 ng·h/mL
"C[C@]12C[C@H](N3CCN(C(=O)[C@@H]4CCCN4C(=O)c4ccc5ccccc5c4)CC3)[C@@H](OC(=O)c3ccccc3C(=O)O)C[C@@H]1CC[C@@H]1[C@@H]2CC[C@]2(C)[C@@H](OC(=O)c3ccccc3C(=O)O)CC[C@@H]12 [38 (AH-75), 2,2′-{[(2β,3α,5α,17β)-2-{4-[1-(naphthalen-2-ylcarbonyl)-L-prolyl]piperazin-1-yl}androstane-3,17-diyl]bis(oxycarbonyl)}dibenzoic acid]",IC50,[6]; [13],> 10 µM
same,IC50,[6]; [14],> 10 µM
same,AUC(0-t),in vivo; AUC (0-3 h),38 ng·h/mL
same,AUC(0-t),in vivo; AUC (0-12 h),72 ng·h/mL
"C[C@]12C[C@H](N3CCN(C(=O)[C@@H]4CCCN4C(=O)c4ccc5ccccc5c4)CC3)[C@@H](O)C[C@@H]1CC[C@@H]1[C@@H]2CC[C@@]2(C)[C@H]1CC[C@]2(C)O [30 (AH-56), {4-[(2β,3α,17β)-3,17-dihydroxy-17-methylandrostan-2-yl]piperazin-1-yl}[(2S)-1-(naphthalen-2-ylcarbonyl)pyrrolidin-2-yl]methanone]",IC50,[6]; [18],4.7 µM
same,IC50,[6]; [19],4.7 µM
same,AUC (0-3 h),[10],183 ng·h/mL
same,AUC (0-12 h),[10],876 ng·h/mL

# From patent US8653054B2, “2-(N-substituted piperazinyl) steroid derivatives” (Universite Laval, priority 2008, dated 2014)
